Key:
[1] = molecular target: T1, butyrylcholinesterase (BChE) (Rattus norvegicus, UniProt Q9JKC1); test: biochemical
T1 construct: from tissue; host or cells: rat serum

[2] = test system: rat cortical neurons; test: NMDA survival assay (LDH release) in cortical neurons; type: cell-based; settings: DIV11 rat cortical neurons, NMDA 20 μM, compound 0.001-10 μg/mL, LDH at 24 hr; FIG. 3
Protocol: The compounds were subjected to NMDA survival assays to investigate their ability to prevent NMDA receptor-induced excitotoxicity. The NMDA survival assay was performed to measure the degree of protection provided to cortical neuronal cells when treated with the compounds prior to an ischemic insult.
DIV10 cortical neurons were treated with NMDA (20 μM) in the presence of compound (cpd) B or C (μg/mL). LDH release in the medium was detected at 24 hr after treatment. DMSO was used as the solvent control, while MK-801 (10 μM) is a known NMDA antagonist.
DIV11 rat cortical neurons were treated with NMDA (20 μM) in the absence or presence of compounds (MK-801, 10 μM; compound A, 0.001-10 μg/mL). LDH release in the medium was detected at 24 hr after treatment. DMSO was used as the solvent control.

[3] = molecular target: T2, acetylcholinesterase (AChE) (Rattus norvegicus, UniProt P37136); test: In vitro inhibition of AChE (cholinesterase assay, Ellman method); type: biochemical; settings: for times more potent than bis(7)-tacrine / times more potent than tacrine: AChE inhibition; for Selectivity AchE*: IC50 (BChE)/IC50 (AChE); for IC50: enzyme prepared from rat cortex
T2 construct: from tissue; host or cells: rat brain cortex
T2 sequence (P37136 32-614): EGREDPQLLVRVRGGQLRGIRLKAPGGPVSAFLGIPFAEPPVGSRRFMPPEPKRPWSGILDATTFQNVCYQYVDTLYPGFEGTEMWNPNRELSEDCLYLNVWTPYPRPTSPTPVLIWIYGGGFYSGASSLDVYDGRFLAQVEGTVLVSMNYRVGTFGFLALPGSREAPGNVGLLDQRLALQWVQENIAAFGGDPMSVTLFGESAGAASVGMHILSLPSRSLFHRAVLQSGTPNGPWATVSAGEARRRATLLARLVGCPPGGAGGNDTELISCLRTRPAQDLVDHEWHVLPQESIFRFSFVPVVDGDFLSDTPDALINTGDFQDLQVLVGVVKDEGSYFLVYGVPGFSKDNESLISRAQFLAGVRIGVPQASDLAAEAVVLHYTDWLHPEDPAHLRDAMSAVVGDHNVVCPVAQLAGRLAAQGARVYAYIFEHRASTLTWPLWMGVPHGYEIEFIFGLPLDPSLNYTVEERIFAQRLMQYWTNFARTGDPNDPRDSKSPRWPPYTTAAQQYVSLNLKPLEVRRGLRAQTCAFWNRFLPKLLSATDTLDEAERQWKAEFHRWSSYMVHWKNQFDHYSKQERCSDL
Protocol: The in vitro inhibition of the enzymes acetylcholinesterase (AChE) and butyrylcholinesterase (BChE) were assessed. BChE, like AChE, breaks down acetylcholine (ACh) but is found in plasma and other organs such as the liver, skin and gastrointestinal tract.
The enzymes, AChE and BChE, used in the inhibition studies were prepared from the cortex and serum of decapitated rats, respectively.

[4] = molecular target: T3, NMDA receptor (Rattus norvegicus, UniProt P35439); test: Whole cell patch clamp, NMDA-induced current in hippocampal neurons; type: cell-based; settings: DIV10-14 rat hippocampal neurons, NMDA 50 μM, compound 10 μg/mL; FIG. 1
T3 construct: Hippocampal neurons from embryonic day 18 rats were isolated, trypsinized, plated onto 35-mm plates; endogenous in cells; host or cells: primary hippocampal neurons from embryonic day 18 rats, DIV10-14
Protocol: The NMDA receptor is a gated ion channel, which allows inflow of current during a nerve impulse. Antagonists to the receptor would prevent the inflow of current. Memantine, a known NMDA antagonist was used as the positive control.
Hippocampal neurons from embryonic day 18 rats were isolated, trypsinized, plated onto 35-mm plates at a density of 3×10^4 cells/plate and cultured in Neurobasal medium (NB) supplemented with B27 nutrient. DIV10-14 rat hippocampal neurons were treated with NMDA (50 μM) in the absence or presence of the novel compounds (Cpd A, B and C) (10 μg/mL). Data is presented as % of NMDA-induced current. DMSO is the solvent control.

T1 sequence (Q9JKC1 24-597): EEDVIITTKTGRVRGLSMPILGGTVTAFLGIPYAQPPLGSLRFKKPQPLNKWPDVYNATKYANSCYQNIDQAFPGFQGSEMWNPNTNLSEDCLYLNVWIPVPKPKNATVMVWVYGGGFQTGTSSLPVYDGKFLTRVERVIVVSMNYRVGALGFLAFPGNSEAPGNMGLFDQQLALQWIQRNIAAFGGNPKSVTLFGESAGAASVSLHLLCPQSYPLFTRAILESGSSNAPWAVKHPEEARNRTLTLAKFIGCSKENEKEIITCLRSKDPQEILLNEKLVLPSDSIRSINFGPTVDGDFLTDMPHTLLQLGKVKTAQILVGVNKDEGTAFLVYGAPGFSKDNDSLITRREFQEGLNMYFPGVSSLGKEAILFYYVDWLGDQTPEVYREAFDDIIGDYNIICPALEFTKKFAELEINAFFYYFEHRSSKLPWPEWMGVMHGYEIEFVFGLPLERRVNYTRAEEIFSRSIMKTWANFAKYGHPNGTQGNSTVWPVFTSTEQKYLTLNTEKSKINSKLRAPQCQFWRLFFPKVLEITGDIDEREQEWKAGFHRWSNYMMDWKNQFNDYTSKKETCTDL

SMILES: O=c1ccc2c([nH]1)CCC(NCCCNc1c3c(nc4cc(Cl)ccc14)CCCC3)C2 (stereo not shown) [Compound A]
- IC50 [1]: 56.7 ± 25 nM
- protection against NMDA insults (LDH release) [2]: capable of protecting cortical neurons against NMDA insults
- times more potent than bis(7)-tacrine [3]: ~53
- times more potent than tacrine [3]: ~200
- Selectivity AchE* [3]: 227.23
- IC50 [3]: 0.25 ± 0.05 nM
- NMDA-induced current [4]: decreased NMDA-induced current in hippocampal neurons

SMILES: O=c1ccc2c([nH]1)CCCC2NCCCCCCCNc1c2c(nc3cc(Cl)ccc13)CCCC2 (stereo not shown) [Compound B]
- IC50 [1]: 31.1 ± 1.96 nM
- times more potent than bis(7)-tacrine [3]: ~1885
- times more potent than tacrine [3]: ~20471
- Selectivity AchE* [3]: 4563
- IC50 [3]: 0.0068 ± 0.003 nM
- NMDA-induced current [4]: decreased NMDA-induced current in hippocampal neurons

SMILES: O=c1ccc2c([nH]1)CCCC2NCCCCCCCCNc1c2c(nc3cc(Cl)ccc13)CCCC2 (stereo not shown) [Compound C]
- IC50 [1]: 638 ± 122 nM
- times more potent than bis(7)-tacrine [3]: ~1039
- times more potent than tacrine [3]: ~11000
- Selectivity AchE* [3]: 50317.32
- IC50 [3]: 0.0127 ± 0.002 nM
- NMDA-induced current [4]: decreased NMDA-induced current in hippocampal neurons

Reference: patent US7605265B2, “Heterodimers and methods of using them” (priority 2007, dated 2009)
